Measured values reported in patent US20210392890A1, “COMPOSITIONS COMPRISING PYRIDINE CARBOXYLATE HERBICIDES AND PLANT GROWTH REGULATORS” (Corteva Agriscience LLC, priority 2018, published 2021).
Where “and” joins values, the source holds several entries; their conditions need not be identical. Identical values can stand only once. Like-named read-outs stand apart in the source and are kept apart here.

Key:
Format in all cases: in vivo
[1] = test system: Abutilon theophrasti (velvetleaf); experiment: Greenhouse postemergence herbicidal effect on ABUTH; details: for Herbicidal Effects (% visual injury) ABUTH Obs: Ethephon 0 g/ha
Text: (§1) Seeds of the desired test plant species were planted in a 90:10% v/v (volume/volume) mixture of PRO-MIX® BX (Premier Tech Horticulture, Quakertown, Pa., USA) and PROFILE® GREENS GRADE™ (Profile Products LLC, Buffalo Grove, Ill., USA) planting mixture, which typically has a pH of 5.2 to 6.2 and an organic matter content of at least 50 percent, in plastic pots with a surface area of 103.2 square centimeters (cm^2). In some aspects, to help ensure good germination and healthy plants, a fungicide treatment and/or other chemical or physical treatment was applied. The plants were grown for 7-36 days (d) in a greenhouse with an approximate 14-hour (h) photoperiod which was maintained at about 23° C. during the day and 22° C. during the night. Nutrients and water were added on a regular basis and supplemental lighting was provided with overhead metal halide 1000-Watt lamps as necessary. The plants were employed for testing when they reached the second or third true leaf stage.
(§2) Emulsifiable concentrates of each of each pyridine carboxylate herbicide (Compound A or Compound B) were prepared at 100 grams acid equivalent per liter (g ae/L). The emulsifiable concentrates also included a safener, cloquintocet-mexyl, at 120 grams active ingredient per liter (g ai/L). An aliquot of each emulsifiable concentrate was placed in a 25 mL glass vial and diluted with an aqueous mixture of 1.25% (v/v) ACTIROB® B esterified rapeseed oil (Bayer Crop Science, Research Triangle Park, N.C., USA) or MSO® Concentrate with LECI-TECH® methylated soybean oil (Loveland Products, Loveland, Colo., USA) to obtain concentrated stock solutions at the highest application rate for each herbicide, based upon a 12 milliliter (mL) application volume at a rate of 187 liters per hectare (L/ha). The concentrated stock solutions were further diluted with an aqueous mixture of 1.25% v/v ACTIROB® B or MSO® Concentrate with LECI-TECH® to obtain stock solutions at reduced application rates for each herbicide. Spray solutions of the herbicide combinations (Compound A or Compound B plus the PGR) were prepared by adding weighed amounts or aliquots of the PGR to the stock solutions of Compound A or Compound B to form 12-mL spray solutions in two-way combinations.
(§3) The spray solutions were applied to the plant material with an overhead Mandel track sprayer equipped with 8002E nozzles calibrated to deliver 187 L/ha over an application area of 0.503 square meters (m^2) at a spray height of 18 inches (43 centimeters (cm)) above the average plant canopy. Control plants were sprayed in the same manner with the solvent blank. All pyridine carboxylate herbicide (component a) application rates are given as “g ae/ha” and all PGR (component b) application rates are given as “g ai/ha.”
(§4) The treated plants and control plants were placed in a greenhouse as described above and watered by sub-irrigation to prevent wash-off of the test compounds. After 20-22 d, the condition of the test plants as compared with that of the control plants was determined visually and scored on a scale of 0 to 100 percent where 0 corresponds to no injury and 100 corresponds to complete kill.

[2] = test system: Cirsium arvense (Canada thistle); experiment: Greenhouse postemergence herbicidal effect on CIRAR; details: for Herbicidal Effects (% visual injury) CIRAR Obs: Ethephon 0 g/ha
Text: as §1, §2, §3, §4

Glycine max (soybean) = experiment: Greenhouse postemergence herbicidal effect on GLXMA
Text: as §1, §2, §3, §4

[3] = test system: Amaranthus retroflexus (pigweed); experiment: Greenhouse postemergence herbicidal effect on AMARE; details: for Herbicidal Effects (% visual injury) AMARE Obs: Ethephon 0 g/ha
Text: as §1, §2, §3, §4

Kochia scoparia (kochia) = experiment: Greenhouse postemergence herbicidal effect on KCHSC; details: for Herbicidal Effects (% visual injury) KCHSC Obs: Ethephon 0 g/ha
Text: as §1, §2, §3, §4

[4] = test system: Hordeum vulgare (spring barley)
Text: as §1, §2, §3, §4

[5] = test system: Hordeum vulgare (winter barley)
Text: as §1, §2, §3, §4

[6] = test system: Sorghum vulgare (grain sorghum); details: for Herbicidal Effects (% visual injury) SORVU Obs: Ethephon 0 g/ha
Text: as §1, §2, §3, §4

[7] = test system: Triticum aestivum (spring wheat)
Text: as §1, §2, §3, §4

[8] = test system: Triticum aestivum (winter wheat)
Text: as §1, §2, §3, §4

Zea mays (maize) = details: for Herbicidal Effects (% visual injury) ZEAMX Obs: Ethephon 0 g/ha
Text: as §1, §2, §3, §4

[9] = test system: Stellaria media (chickweed); experiment: Greenhouse postemergence herbicidal effect on STEME; details: for Herbicidal Effects (% visual injury) STEME Obs: Ethephon 0 g/ha
Text: as §1, §2, §3, §4

[10] = test system: Brassica napus (spring rape); experiment: Greenhouse postemergence herbicidal effect on BRSNN; details: for Herbicidal Effects (% visual injury) BRSNN Obs: Ethephon 0 g/ha
Text: as §1, §2, §3, §4

[11] = test system: Setaria faberi (giant foxtail); experiment: Greenhouse postemergence herbicidal effect on SETFA; details: for Herbicidal Effects (% visual injury) SETFA Obs: Ethephon 0 g/ha
Text: as §1, §2, §3, §4

[12] = test system: Salsola kali (Russian thistle); experiment: Greenhouse postemergence herbicidal effect on SASKR
Text: as §1
(§5) Emulsifiable concentrates of each of each pyridine carboxylate herbicide (Compound A or Compound B) were prepared at 100 grams acid equivalent per liter (g ae/L). The emulsifiable concentrates also included a safener, cloquintocet-mexyl, at 120 grams active ingredient per liter (g ai/L). […]
as §4

[13] = test system: Lamium purpureum (purple deadnettle); experiment: Greenhouse postemergence herbicidal effect on LAMPU
Text: as §1, §5, §4

[14] = test system: Papaver rhoeas (common poppy); experiment: Greenhouse postemergence herbicidal effect on PAPRH
Text: as §1, §5, §4

## N#CCOC(=O)c1nc(-c2ccc3cc[nH]c3c2F)c(F)c(N)c1Cl [Compound A, cyanomethyl 4-amino-3-chloro-5-fluoro-6-(7-fluoro-1H-indol-6-yl)pyridine-2-carboxylate]
[1]; Compound A 7.5 g/ha
  Herbicidal Effects (% visual injury) ABUTH Obs: 73%
[1]; Compound A 10 g/ha
  Herbicidal Effects (% visual injury) ABUTH Obs: 85%
[1]; herbicide 7.5 g ae/ha alone
  % visual injury Obs: 40% and 68%
[1]; herbicide 10 g ae/ha alone
  % visual injury Obs: 48% and 80%
[2]; Compound A 7.5 g/ha
  Herbicidal Effects (% visual injury) CIRAR Obs: 50%
[2]; Compound A 10 g/ha
  Herbicidal Effects (% visual injury) CIRAR Obs: 60%
[2]; herbicide 7.5 g ae/ha alone
  % visual injury Obs: 25% and 40% and 50%
[2]; herbicide 15 g ae/ha alone
  % visual injury Obs: 63%
Glycine max (soybean); herbicide 7.5 g ae/ha alone
  % visual injury Obs: 100% and 80%
Glycine max (soybean); herbicide 10 g ae/ha alone
  % visual injury Obs: 99% and 90%
[3]; Compound A 7.5 g/ha
  Herbicidal Effects (% visual injury) AMARE Obs: 99%
[3]; Compound A 10 g/ha
  Herbicidal Effects (% visual injury) AMARE Obs: 100%
[3]; herbicide 7.5 g ae/ha alone
  % visual injury Obs: 80% and 88%
[3]; herbicide 10 g ae/ha alone
  % visual injury Obs: 85% and 88%
Kochia scoparia (kochia); Compound A 7.5 g/ha
  Herbicidal Effects (% visual injury) KCHSC Obs: 70%
Kochia scoparia (kochia); Compound A 10 g/ha
  Herbicidal Effects (% visual injury) KCHSC Obs: 65%
Kochia scoparia (kochia); herbicide 7.5 g ae/ha alone
  % visual injury Obs: 63% and 75%
Kochia scoparia (kochia); herbicide 10 g ae/ha alone
  % visual injury Obs: 65% and 73%
Kochia scoparia (kochia); herbicide 15 g ae/ha alone
  % visual injury Obs: 63%
[4]; herbicide 7.5 g ae/ha alone
  % visual injury Obs: 0%
[4]; herbicide 10 g ae/ha alone
  % visual injury Obs: 0%
[4]; herbicide 15 g ae/ha alone
  % visual injury Obs: 0%
[5]; herbicide 7.5 g ae/ha alone
  % visual injury Obs: 0%
[5]; herbicide 10 g ae/ha alone
  % visual injury Obs: 0%
[5]; herbicide 15 g ae/ha alone
  % visual injury Obs: 0%
[6]; Compound A 7.5 g/ha
  Herbicidal Effects (% visual injury) SORVU Obs: 8%
[6]; Compound A 10 g/ha
  Herbicidal Effects (% visual injury) SORVU Obs: 8%
[6]; herbicide 7.5 g ae/ha alone
  % visual injury Obs: 0%
[6]; herbicide 10 g ae/ha alone
  % visual injury Obs: 0%
[7]; herbicide 7.5 g ae/ha alone
  % visual injury Obs: 0% and 5%
[7]; herbicide 10 g ae/ha alone
  % visual injury Obs: 0% and 3%
[7]; herbicide 15 g ae/ha alone
  % visual injury Obs: 0%
[8]; herbicide 7.5 g ae/ha alone
  % visual injury Obs: 0%
[8]; herbicide 10 g ae/ha alone
  % visual injury Obs: 0%
[8]; herbicide 15 g ae/ha alone
  % visual injury Obs: 0%
Zea mays (maize); Compound A 7.5 g/ha
  Herbicidal Effects (% visual injury) ZEAMX Obs: 0%
Zea mays (maize); Compound A 10 g/ha
  Herbicidal Effects (% visual injury) ZEAMX Obs: 5%
Zea mays (maize); herbicide 7.5 g ae/ha alone
  % visual injury Obs: 0%
Zea mays (maize); herbicide 10 g ae/ha alone
  % visual injury Obs: 0%
[9]; Compound A 7.5 g/ha
  Herbicidal Effects (% visual injury) STEME Obs: 100%
[9]; Compound A 10 g/ha
  Herbicidal Effects (% visual injury) STEME Obs: 100%
[9]; herbicide 7.5 g ae/ha alone
  % visual injury Obs: 89% and 85%
[9]; herbicide 10 g ae/ha alone
  % visual injury Obs: 90% and 88%
[9]; herbicide 15 g ae/ha alone
  % visual injury Obs: 89%
[10]; Compound A 7.5 g/ha
  Herbicidal Effects (% visual injury) BRSNN Obs: 45%
[10]; Compound A 10 g/ha
  Herbicidal Effects (% visual injury) BRSNN Obs: 55%
[10]; herbicide 7.5 g ae/ha alone
  % visual injury Obs: 65%
[10]; herbicide 10 g ae/ha alone
  % visual injury Obs: 65%
[11]; Compound A 7.5 g/ha
  Herbicidal Effects (% visual injury) SETFA Obs: 55%
[11]; Compound A 10 g/ha
  Herbicidal Effects (% visual injury) SETFA Obs: 70%
[11]; herbicide 7.5 g ae/ha alone
  % visual injury Obs: 78%
[11]; herbicide 10 g ae/ha alone
  % visual injury Obs: 80%
[12]; herbicide 7.5 g ae/ha alone
  % visual injury Obs: 50%
[12]; herbicide 10 g ae/ha alone
  % visual injury Obs: 60%
[12]; herbicide 15 g ae/ha alone
  % visual injury Obs: 63%
[13]; herbicide 7.5 g ae/ha alone
  % visual injury Obs: 68%
[13]; herbicide 10 g ae/ha alone
  % visual injury Obs: 73%
[13]; herbicide 15 g ae/ha alone
  % visual injury Obs: 73%
[14]; herbicide 7.5 g ae/ha alone
  % visual injury Obs: 100%
[14]; herbicide 10 g ae/ha alone
  % visual injury Obs: 99%
[14]; herbicide 15 g ae/ha alone
  % visual injury Obs: 100%
